Legend:
Format in all cases: cell-based, human
γ-secretase = γ-secretase activity blocked in DM1 myoblasts, NOTCH1 level; conditions: pharmacological inhibition of γ-secretase
DM1 myoblasts = assay: Myogenic differentiation of treated DM1 myoblasts in differentiation media (myotubes, myogenin, MyoD)
From the text: The above findings supported the possibility that a significant amount of SKELETROPHIN remained bound with the mutant DMPK transcripts within DM1 nuclei, which results in diminished SKELETROPHIN activity in DM1. The attenuated SKELETROPHIN activity then manifests with an increase in JAGGED2 activity, leading to chronic activation of Notch signaling in DM1. Based on these findings we hypothesize that the activated Notch attenuates the ability of DM1 myoblasts to progress toward myogenic lineage, while facilitating their proliferation. To more critically test this idea, DMPK transcripts were targeted in DM1 myoblasts using siRNA and JAGGED2 and NOTCH1 expression was measured, in addition to an assessment of the cells' myogenic properties. DMPK transcripts were targeted to minimize interactions of SKELETROPHIN with CUG RNA, thereby increasing SKELETROPHIN activity. […] JAGGED2 and NOTCH1 levels were measured in the DMPK-siRNA-treated cells. […] In contrast, DM1 myoblasts treated with control siRNA formed fewer and shorter myotubes as well as basal myogenin expression under identical conditions.
Whether attenuating Notch signaling improves the myogenic potential of DM1 myoblasts was assessed. To achieve this goal, JAGGED2 was targeted in DM1 myoblasts with siRNA.
(§1) The above results support the idea that diminished SKELETROPHIN activity results in elevated Notch signaling and activated Notch impairs the efficacy of myoblast differentiation in DM1. To obtain more direct evidence for this interpretation, SKELETROPHIN was overexpressed in DM1 myoblasts and the Notch activity and their myogenic properties were assessed.
The progression of myogenesis was quantified by monitoring the expression of myogenic markers, myogenin and MyoD. […] In contrast, untreated DM1 myoblasts show reduced myogenin and MyoD even after prolonged incubation in differentiation media.

Notch signaling = assay: SKELETROPHIN overexpression in DM1 myoblasts, Notch activity
Method: as §1

CC(C)C[C@H](NC(=O)[C@H](Cc1ccccc1)C[C@@H](O)[C@H](Cc1ccccc1)NC(=O)OC(C)(C)C)C(=O)N[C@@H](Cc1ccccc1)C(N)=O [L-685458]
NOTCH1 level (γ-secretase): dose-dependent reduction | MyoD expression (DM1 myoblasts): increase | formation of multinucleated myotubes (DM1 myoblasts): higher propensity to form multi-nucleated myotubes | myogenin expression (DM1 myoblasts): increase

B1: SKELETROPHIN: E3 ubiquitin ligase for Jagged2, overexpressed in DM1 myoblasts (protein, listed as Homo sapiens)
chain: MRWKCRVCLDYDLCTQCYMHNKHELAHAFDRYETAHSRPVTLSPRQGLPRIPLRGIFQGAKVVRGPDWEWGSQDGGEGKPGRVVDIRGWDVETGRSVASVTWADGTTNVYRVGHKGKVDLKCVGEAAGGFYYKDHLPRLGKPAELQRRVSADSQPFQHGDKVKCLLDTDVLREMQEGHGGWNPRMAEFIGQTGTVHRITDRGDVRVQFNHETRWTFHPGALTKALGRVGKVVKVFGDGNLRVAVAGQRWTFSPSCLVAYRPEEDANLDVAERARENKSSLSVALDKLRAQKSDPEHPGRLVVEVALGNAARALDLLRRRPEQVDTKNQGRTALQVAAYLGQVELIRLLLQARAGVDLPDDEGNTALHYAALGNQPEATRVLLSAGCRADAINSTQSTALHVAVQRGFLEVVRALCERGCDVNLPDAHSDTPLHSAISAGTGASGIVEVLTEVPNIDVTATNSQGFTLLHHASLKGHALAVRKILARARQLVDAKKEDGFTALHLAALNNHREVAQILIREGRCDVNVRNRKLQSPLHLAVQQAHVGLVPLLVDAGCSVNAEDEEGDTALHVALQRHQLLPLVADGAGGDPGPLQLLSRLQASGLPGSAELTVGAAVACFLALEGADVSYTNHRGRSPLDLAAEGRVLKALQGCAQRFRERQAGGGAAPGPRQTLGTPNTVTNLHVGAAPGPEAAECLVCSELALLVLFSPCQHRTVCEECARRMKKCIRCQVVVSKKLRPDGSEVASAAPAPGPPRQLVEELQSRYRQMEERITCPICIDSHIRLVFQCGHGACAPCGSALSACPICRQPIRDRIQIFV
NOTCH1 level (Notch signaling): significant reduction | Notch signaling (Notch signaling; n=4, P=0.0031): significant reduction | formation of multinucleated myotubes (DM1 myoblasts): a large number of these myoblasts differentiated | myogenin expression (DM1 myoblasts): pronounced myogenin expressions

Reference: patent US8771965B2, “Methods and compositions involving nucleotide repeat disorders” (The Board of Regents of the University of Texas System, priority 2006, dated 2014)
